“Also recorded” adds a separate entry of the source.
Key:
histamine H1-receptor = histamine H1-receptor (Homo sapiens, UniProt P35367); conditions: more potent; cited from earlier work
[1] = 5% lidocaine plaster applied to skin; cited from earlier work
mu-opioid receptors = mu-opioid receptors (Homo sapiens, UniProt P35372); conditions: cited from earlier work
classic TN = conditions: 100-400 mg/d; 8 patients with classic TN; cited from earlier work
[2] = cited from earlier work
[3] = test system: patients suffering from trigeminal neuralgia (TN); assay: Non-randomized clinical observations of Trimeprazine in patients (n=7) with trigeminal neuralgia; type: in vivo, human; conditions: for overall efficacy on TN pain: seven TN patients, non-randomized
Description: A middle-aged patient suffers from classic trigeminal (Type 1) neuralgia presenting with sharp, lancinating, severe pain in their left face precipitated by showering, eating, facial animation, touch of their facial skin and nose, and brushing their teeth. The episodes of pain are initiated by the stimuli above and immediately stop all other activity until they subside in several seconds. Their behavior is modified to avoid the stimuli above, even affecting how they speak and eats. […] Their daily activities are dominated by fear of inducing another attack.
The patient began treatment with Trimeprazine 5 mg morning and evening.
The disease had caused cutaneous anesthesia in the right forehead and cheek. […] Beginning at about 19 years after the bout of Lyme disease they noted sharp lightning-like pains in their right cheek. Brief and usually during cutaneous stimulation, like being in a shower. There were perhaps one or two of these occurrences per year. At 22 years after the initial Lyme disease, they experienced a severe attack of Trigeminal Neuralgia (TN) affecting their right cheek (Type 1). There were on average 8 bouts of severe stabbing pain per day precipitated by facial animation, touching, opening their mouth to eat, brushing their teeth, and even a gust of cold wind. They treated themself with doxycycline, fearing a reactivation of Lyme disease.
They were quite miserable, being unable to even brush their teeth without precipitating a severe bout of pain.
Patient is a person who suffers from TN which began 3 years ago after a dental procedure. The TN was manifest by sharp, lancinating pain in the left side of their jaw (Type. 1). These periods of pain were episodic, precipitated by stimuli like brushing their teeth, at least once per day, with periods of vulnerability lasting 3-4 weeks each occurring 3-4 times per year. Their parent had suffered with the same pattern of TN. When started on Trimeprazine they were also taking Pregabalin.
Patient is a young person who developed severe ophthalmic herpes zoster involving the right side of their face and their right eye. They had extensive ocular involvement requiring medications for a full year. Their corneal difficulties were accompanied by a severe lingering neuralgia in the affected ophthalmic distribution of the trigeminal nerve (Type 2), which plagued their every waking hour. They were on 12 medications including carbamazepine 200 mg BID and pregabalin 150 mg TID, ophthalmic medications, and oxycodone as needed for pain relief.
This patient suffered from shingles on their forehead which was followed by lingering neuralgia in the affected ophthalmic distribution of the trigeminal nerve.

TN [4] = conditions: 23 patients; add-on therapy; cited from earlier work
TN [5] = conditions: 10 patients with TN; cited from earlier work
PHN = conditions: in vivo; cited from earlier work
PHN symptoms = conditions: human, in vivo; cited from earlier work
[6] = test system: post-herpetic neuralgia (PHN) pain; assay: Applicant's clinical observations of Trimeprazine tartrate in post-herpetic neuralgia; type: in vivo, human; conditions: not a randomized clinical trial
Description: While the clinical observations are not from a randomized clinical trial and could be subject to placebo effects and other confounders, they offer a promising finding for this devastating facial pain condition.

[7] = Example 5, four months or so after

Sequence of mu-opioid receptors (P35372 whole entry): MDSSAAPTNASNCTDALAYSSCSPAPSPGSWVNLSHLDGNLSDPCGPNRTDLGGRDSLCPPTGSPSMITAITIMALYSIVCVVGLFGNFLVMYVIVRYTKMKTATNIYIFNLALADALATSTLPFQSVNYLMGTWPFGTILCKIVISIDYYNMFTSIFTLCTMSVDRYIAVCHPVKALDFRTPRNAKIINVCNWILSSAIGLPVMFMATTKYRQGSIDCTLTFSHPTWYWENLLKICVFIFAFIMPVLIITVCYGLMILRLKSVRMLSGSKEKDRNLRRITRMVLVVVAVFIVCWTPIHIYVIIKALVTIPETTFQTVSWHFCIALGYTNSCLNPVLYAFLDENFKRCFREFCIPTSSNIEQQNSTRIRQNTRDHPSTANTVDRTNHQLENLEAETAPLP
Sequence of histamine H1-receptor (P35367 whole entry, species assumed): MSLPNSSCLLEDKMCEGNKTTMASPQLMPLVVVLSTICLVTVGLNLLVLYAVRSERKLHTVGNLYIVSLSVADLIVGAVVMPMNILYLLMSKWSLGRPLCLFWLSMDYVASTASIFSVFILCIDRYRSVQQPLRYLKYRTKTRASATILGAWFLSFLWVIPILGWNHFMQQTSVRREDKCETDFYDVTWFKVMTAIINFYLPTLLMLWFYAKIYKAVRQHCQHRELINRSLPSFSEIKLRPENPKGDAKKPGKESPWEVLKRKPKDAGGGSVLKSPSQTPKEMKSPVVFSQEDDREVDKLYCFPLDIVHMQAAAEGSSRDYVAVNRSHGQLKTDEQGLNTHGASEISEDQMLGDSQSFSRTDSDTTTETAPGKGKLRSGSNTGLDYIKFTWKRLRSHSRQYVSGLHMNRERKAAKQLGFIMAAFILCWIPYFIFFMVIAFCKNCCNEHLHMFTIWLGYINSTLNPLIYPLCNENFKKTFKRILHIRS

Cc1ccc(/C(=C\CN2CCCC2)c2ccccn2)cc1 [E-triprolidine]
potency relative to Z-triprolidine (histamine H1-receptor): 1000 fold

CCN(CC)CC(=O)Nc1c(C)cccc1C [Lidocaine]
fraction of the drug reaching the systemic circulation [1]: 3%

CC[C@@H](c1cccc(O)c1)[C@@H](C)CN(C)C [Tapentadol]
times less potent than morphine in binding mu-opioid receptors (mu-opioid receptors): 18 times

CC1(C)O[C@@H]2[C@@H](CO[C@@]3(COS(N)(=O)=O)OC(C)(C)O[C@@H]23)O1 [Topiramate]
patients in whom found effective (classic TN): 75%

CC(CN(C)C)CN1c2ccccc2Sc2ccccc21 (stereo not shown) [Trimeprazine]
LogP [2]: 4.71
pain ([3]; Example 1, TN Type 1, 5 mg morning and evening, after four days of medication): all pain was gone
intensity and frequency of the attacks ([3]; Example 1, middle-aged male, TN Type 1, 5 mg morning and evening, second day of the course): in decline
side-effects ([3]; Example 1, 5 mg): no side-effects other than drowsiness
later discomfort in face ([3]; Example 1, ½ to 1 pill of 5 mg once or twice a day): successfully alleviated
recurring sharp pains ([3]; Example 2, person, TN Type 1, recurrences at seven and eleven months after the TN attack, 5 mg twice a day): immediately stop all recurring pains
recurrent attacks of TN ([3]; Example 2, in the 12 months since the last treatment): no recurrent attacks of TN
pain ([3]; Example 3, elderly male, TN Type 1 uncontrolled with carbamazepine and gabapentin, 5 mg twice a day, by ten days after starting treatment): essentially pain free
duration of relief ([3]; Example 3, 5 mg twice a day): enduring
tolerability ([3]; Example 3, 5 mg twice a day): except for some drowsiness, tolerated the medicine well
jaw pain ([3]; Example 4, person, TN Type 1, also taking Pregabalin, after a first course of 10 days, 5 mg BID): jaw pain was gone
sensitive area on the side of head above ear ([3]; Example 4, second course 5 mg BID for several days): disappeared entirely
improvement of neuralgia ([3]; Example 5, young person, TN Type 2 after ophthalmic herpes zoster, by 5 days after starting the medication): some improvement
average pain (patient-reported) [3, 7]: 2
max pain (patient-reported) [3, 7]: 5
patient-reported relief of head pain ([3]; Example 6, TN Type 2 after shingles, 5 mg BID, by 6 days after starting): it does help my head
Clinical Outcome ([3]; Patient 1, TN Type 1): Relief, no additional
Comment ([3]; Patient 1, TN Type 1): Pain gone day 3
Clinical Outcome ([3]; Patient 2, TN Type 1): Relief, no additional
Comment ([3]; Patient 2, TN Type 1): 3 subsequent attacks
Clinical Outcome ([3]; Patient 3, TN Type 1): Relief, no additional
Comment ([3]; Patient 3, TN Type 1): “So nice to be pain
Clinical Outcome ([3]; Patient 4, TN Type 1): Relief, no additional
Comment ([3]; Patient 4, TN Type 1): Facial pain gone
Comment ([3]; Patient 5, TN Type 2): Better and continuing
Clinical Outcome ([3]; Patient 6, TN Type 2): Better, can travel
Clinical Outcome ([3]; Patient 7, TN Type 2): Better, no additional
Comment ([3]; Patient 7, TN Type 2): “No bother now”
overall efficacy on TN pain [3]: demonstrated efficacy; also recorded: significant pain relief
overall efficacy on TN pain ([3]; listed as trimeprazine): reduced or relieved
patients with long-term pain relief, no recurrence of symptoms for over 12 months ([3]; subset of TN patients treated with Trimeprazine): two out of seven

CC[C@@H](C(N)=O)N1CCCC1=O [levetiracetam]
reduction in number of daily attacks (TN [4]): 62%
improvement (TN [5]): 50-90%

CC(C)C[C@H](CN)CC(=O)O [pregabalin]
analgesic property relative to gabapentin (PHN): 6 times

Botulinum Toxin A [BTX-A]
cases in which effective in reducing pain (PHN symptoms): 31%
cases with significant outcomes (PHN symptoms): 46.6%
side effects (PHN symptoms): mild

Trimeprazine tartrate
effectiveness on PHN pain [6]: effectiveness in alleviating pain
overall efficacy on TN pain [3]: effectiveness in alleviating pain
